Tests used:
[1] = test system: NQO1 activity in Hepa1c1c7 cells; test: NAD(P)H: quinone oxidoreductase-1 (NQO1) enzyme induction assay (in vitro); assay type: cell-based, mouse; conditions: Mus musculus, Hepa-1c1c7, NQO1 activity upon addition of 400 nM of test compound, about 48 hr, ratio from the base without the compound
Experimental: Experimental Example 2: NAD(P)H: Quinone Oxidoreductase-1 (NQO1) Enzyme Induction Assay (In Vitro)
The NQO1 assay was performed based on a previous report (Methods in Enzymology 2004; 382: 243-258). Hepa1c1c7 cells (mouse hepatocyte cell line, ATCC, cat. no. CRL-2026) were cultured in D-MEM medium containing 10% FBS and 1% penicillin/streptomycin (5% CO2, 37° C.), and seeded into 96-well plates (Corning REF. 353072) at 1×10^4 cells/well. A portion of the wells were prepared with medium only for background measurement without seeding cells. The next day, 400 nM of the test compound (0.004% of the final concentration in DMSO) dissolved in DMSO was added thereto, and the wells were incubated for about 48 hr. A well without adding the test compound was prepared for base activity assay in part.
Cell lysate (solution containing 0.8% digitonin, 2 mM EDTA), reaction solution (solution containing 25 mM Tris-HCl, 0.07% albumin, 0.01% Tween-20, 2 U/mL glucose-6-phosphate dehydrogenase, 5 μM flavin adenine dinucleotide, 1 μM glucose-6-phosphate, 30 μM nicotinamide adenine dinucleotide phosphate, 0.03% 3-(4,5-dimethyl-2-thiazolyl)-2,5-diphenyltetrazolium bromide (MTT), and 50 μM menadione), stop solution (solution containing 0.3 mM dicoumarol and 5 mM potassium dihydrogen phosphate, pH 7.4) were prepared. After the medium was removed, 50 μL of the cell lysate was added and incubated at 37° C. for 10 minutes, followed by shaking at room temperature for 10 minutes. 200 μL of reaction solution was added thereto, and allowed to stand for 5 minutes at room temperature. 50 μL of the stop solution was added thereto, and absorbance was measured at 610 nm on a SpectraMax PLUS384 (Molecular devices) or POWERSCAN HT (DS Pharma Biomedical). The test results were analyzed in Excel, and the NQO1 activity upon addition of 400 nM of test compound was calculated as a ratio from the base without the compound.
The results of each test compound in this test are shown in the following Table 2 (A: 5<NQO1 activity ratio, B: 3<NQO1 activity ratio 5, C: 1.5<NQO1 activity ratio 3).

[2] = molecular target: GST-fused human Keap1 (amino acid residues: 325-642) protein (Homo sapiens (Human), UniProt Q14145); test: FP assay (in vitro): inhibition of binding between Nrf2 and Keap1 by fluorescence polarization; conditions: 20 nM GST-fused human Keap1, 10 nM FITC-labeled Nrf2 peptide, 2 hr at room temperature
Chain of GST-fused human Keap1 (amino acid residues: 325-642) protein (Q14145 325-624 limits assumed): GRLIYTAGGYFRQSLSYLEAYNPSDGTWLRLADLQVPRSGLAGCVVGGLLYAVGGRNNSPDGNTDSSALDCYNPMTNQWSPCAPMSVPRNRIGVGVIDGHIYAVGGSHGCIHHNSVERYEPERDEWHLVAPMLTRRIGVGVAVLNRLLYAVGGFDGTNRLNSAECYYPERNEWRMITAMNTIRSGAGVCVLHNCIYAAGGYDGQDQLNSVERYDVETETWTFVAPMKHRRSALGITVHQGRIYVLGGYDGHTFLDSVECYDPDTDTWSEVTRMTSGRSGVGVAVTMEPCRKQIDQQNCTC
Experimental: Experimental Example 1: FP Assay (In Vitro)
The inhibitory activity of test compounds on the binding between Nrf2 and Keap1 was determined by fluorescence polarization. A solution of 50 mM Tris-HCl pH.8.0 (NACALAI, REF: 06938-15), and 5 mM DTT (SIGMA-ALDRICH, REF: 646563-10X.5 mL) was used as a buffer solution. 8 μL of a buffer solution containing 40 nM GST-fused human Keap1 (amino acid residues: 325-642) protein (Protein tech, REF: Ag0779) was taken in a black 384-well plate (final concentration 20 nM), and 4 μL of the test compound solution prepared to each concentration in buffer solution was added thereto. A well containing a portion of the buffer solution without Keap1 was placed as a negative control. A well with no compound was used as a positive control. 40 nM of FITC-labeled Nrf2 peptide (FITC-X-LQLDEETGEFLPIQ (X=ε-Acp), Peptide Institute Inc.) was added thereto (10 nM final concentration). The wells were incubated at room temperature for 2 hr, and then fluorescence polarization was measured with a plate reader SPECTRAMAX Paradigm (Molecular devices) at excitation wavelength of 485 nm and fluorescence wavelength of 535 nm. The fluorescence polarization of the negative control was set to 100% inhibition and that of the positive control to 0% inhibition, and the inhibitory rate upon addition of the test compound was calculated using the following formula.

Structure (SMILES) | IC50 [2] | fold induction at 0.4 µM [1]
Cc1c([C@H](CC(=O)O)c2cc(CN3Cc4nc(O)ccc4O[C@H](C)C3)c3sccc3c2)ccc2c1nnn2C [Example 16, (3R)-3-(1,4-Dimethyl-1H-benzotriazol-5-yl)-3-(7-{[(2R)-7-hydroxy-2-methyl-2,3-dihydropyrido[2,3-f][1,4]oxazepin-4(5H)-yl]methyl}-1-benzothiophen-5-yl)propanoic acid] | 30 to 300 nM | > 5
CC[C@@H]1CN(Cc2cc([C@H](CC(=O)O)c3cc(C)c4c(nnn4C)c3C)cc3ccsc23)Cc2nc(O)ccc2O1 [Example 17, (3S)-3-(7-{[(2R)-2-Ethyl-7-hydroxy-2,3-dihydropyrido[2,3-f][1,4]oxazepin-4(5H)-yl]methyl}-1-benzothiophen-5-yl)-3-(1,4,7-trimethyl-1H-benzotriazol-5-yl)propanoic acid] | 30 to 300 nM | > 5
CC[C@@H]1CN(Cc2cc([C@@H](CC(=O)O)c3cc(C)c4c(nnn4C)c3C)cc3ccsc23)Cc2nc(O)ccc2O1 [Example 18, (3R)-3-(7-{[(2R)-2-Ethyl-7-hydroxy-2,3-dihydropyrido[2,3-f][1,4]oxazepin-4(5H)-yl]methyl}-1-benzothiophen-5-yl)-3-(1,4,7-trimethyl-1H-benzotriazol-5-yl)propanoic acid] | 30 to 300 nM | > 5
CC[C@@H]1CN(Cc2cc([C@@H](CC(=O)O)c3ccc4c(nnn4CC(C)(C)O)c3C)cc3ccsc23)Cc2nc(O)ccc2O1 [Example 19, (3R)-3-(7-{[(2R)-2-Ethyl-7-hydroxy-2,3-dihydropyrido[2,3-f][1,4]oxazepin-4(5H)-yl]methyl}-1-benzothiophen-5-yl)-3-[1-(2-hydroxy-2-methylpropyl)-4-methyl-1H-benzotriazol-5-yl]propanoic acid] | 30 to 300 nM | 3 to 5
CC[C@@H]1CN(Cc2cc([C@@H](CC(=O)O)c3cnc4c(nnn4C)c3C)cc3ccsc23)Cc2nc(O)ccc2O1 [Example 23, (3R)-3-(3,7-Dimethyl-3H-[1,2,3]triazolo[4,5-b]pyridin-6-yl)-3-(7-{[(2R)-2-ethyl-7-hydroxy-2,3-dihydropyrido[2,3-f][1,4]oxazepin-4(5H)-yl]methyl}-1-benzothiophen-5-yl)propanoic acid] | 30 to 300 nM | 3 to 5
CC[C@@H]1CN(Cc2cc([C@H](CC(=O)O)c3ccc4c(nnn4CCN(C)C)c3C)cc3ccsc23)Cc2nc(O)ccc2O1 [Example 26, (3S)-3-{1-[2-(Dimethylamino)ethyl]-4-methyl-1H-benzotriazol-5-yl}-3-(7-{[(2R)-2-ethyl-7-hydroxy-2,3-dihydropyrido[2,3-f][1,4]oxazepin-4(5H)-yl]methyl}-1-benzothiophen-5-yl)propanoic acid] | 10 to 30 nM | 3 to 5
CC[C@@H]1CN(Cc2cc([C@@H](CC(=O)O)c3cc(C(F)(F)F)c4c(nnn4C)c3C)cc3ccsc23)Cc2nc(O)ccc2O1 [Example 29, (3R)-3-[1,4-Dimethyl-7-(trifluoromethyl)-1H-benzotriazol-5-yl]-3-(7-{[(2R)-2-ethyl-7-hydroxy-2,3-dihydropyrido[2,3-f][1,4]oxazepin-4(5H)-yl]methyl}-1-benzothiophen-5-yl)propanoic acid] | 10 to 30 nM | > 5
CC[C@@H]1CN(Cc2cc([C@H](CC(=O)O)c3cc(C(F)(F)F)c4c(nnn4C)c3C)cc3ccsc23)Cc2nc(O)ccc2O1 [Example 30, (3S)-3-[1,4-Dimethyl-7-(trifluoromethyl)-1H-benzotriazol-5-yl]-3-(7-{[(2R)-2-ethyl-7-hydroxy-2,3-dihydropyrido[2,3-f][1,4]oxazepin-4(5H)-yl]methyl}-1-benzothiophen-5-yl)propanoic acid] | 10 to 30 nM | > 5

Continued, in another order:

IC50 [2] | Structure (SMILES) | fold induction at 0.4 µM [1]
10 to 30 nM | Cc1c([C@H](CC(=O)O)c2cc(CN3Cc4nc(O)ccc4O[C@H](C4CC4)C3)c3sccc3c2)cnc2c1nnn2C [Example 10, (3R)-3-(7-{[(2R)-2-Cyclopropyl-7-hydroxy-2,3-dihydropyrido[2,3-f][1,4]oxazepin-4(5H)-yl]methyl}-1-benzothiophen-5-yl)-3-(3,7-dimethyl-3H-[1,2,3]triazolo[4,5-b]pyridin-6-yl)propanoic acid] | > 5
≤ 10 nM | Cc1c([C@H](c2cc(CN3Cc4nc(O)ccc4O[C@H](C4CC4)C3)c3sccc3c2)C(C)(C)C(=O)O)ccc2c1nnn2C [Example 14, (3S)-3-(7-{[(2R)-2-Cyclopropyl-7-hydroxy-2,3-dihydropyrido[2,3-f][1,4]oxazepin-4(5H)-yl]methyl}-1-benzothiophen-5-yl)-3-(1,4-dimethyl-1H-benzotriazol-5-yl)-2,2-dimethylpropanoic acid] | > 5
10 to 30 nM | Cc1c([C@@H](CC(=O)O)c2cc(CN3Cc4nc(O)ccc4O[C@H](C)C3)c3sccc3c2)ccc2c1nnn2C [Example 15, (3S)-3-(1,4-Dimethyl-1H-benzotriazol-5-yl)-3-(7-{[(2R)-7-hydroxy-2-methyl-2,3-dihydropyrido[2,3-f][1,4]oxazepin-4(5H)-yl]methyl}-1-benzothiophen-5-yl)propanoic acid] | > 5
10 to 30 nM | CC[C@@H]1CN(Cc2cc([C@H](CC(=O)O)c3ccc4c(nnn4CC(C)(C)O)c3C)cc3ccsc23)Cc2nc(O)ccc2O1 [Example 20, (3S)-3-(7-{[(2R)-2-Ethyl-7-hydroxy-2,3-dihydropyrido[2,3-f][1,4]oxazepin-4(5H)-yl]methyl}-1-benzothiophen-5-yl)-3-[1-(2-hydroxy-2-methylpropyl)-4-methyl-1H-benzotriazol-5-yl]propanoic acid] | 3 to 5
10 to 30 nM | CC[C@@H]1CN(Cc2cc([C@@H](CC(=O)O)c3cc(OC)c4c(nnn4C)c3C)cc3ccsc23)Cc2nc(O)ccc2O1 [Example 21, (3R)-3-(7-{[(2R)-2-Ethyl-7-hydroxy-2,3-dihydropyrido[2,3-f][1,4]oxazepin-4(5H)-yl]methyl}-1-benzothiophen-5-yl)-3-(7-methoxy-1,4-dimethyl-1H-benzotriazol-5-yl)propanoic acid] | > 5
≤ 10 nM | CC[C@@H]1CN(Cc2cc([C@H](CC(=O)O)c3cc(OC)c4c(nnn4C)c3C)cc3ccsc23)Cc2nc(O)ccc2O1 [Example 22, (3S)-3-(7-{[(2R)-2-Ethyl-7-hydroxy-2,3-dihydropyrido[2,3-f][1,4]oxazepin-4(5H)-yl]methyl}-1-benzothiophen-5-yl)-3-(7-methoxy-1,4-dimethyl-1H-benzotriazol-5-yl)propanoic acid] | 3 to 5
10 to 30 nM | CC[C@@H]1CN(Cc2cc([C@H](CC(=O)O)c3cnc4c(nnn4C)c3C)cc3ccsc23)Cc2nc(O)ccc2O1 [Example 24, (3S)-3-(3,7-Dimethyl-3H-[1,2,3]triazolo[4,5-b]pyridin-6-yl)-3-(7-{[(2R)-2-ethyl-7-hydroxy-2,3-dihydropyrido[2,3-f][1,4]oxazepin-4(5H)-yl]methyl}-1-benzothiophen-5-yl)propanoic acid] | 3 to 5
10 to 30 nM | CC[C@@H]1CN(Cc2cc([C@@H](CC(=O)O)c3ccc4c(nnn4CCN(C)C)c3C)cc3ccsc23)Cc2nc(O)ccc2O1 [Example 25, (3R)-3-{1-[2-(Dimethylamino)ethyl]-4-methyl-1H-benzotriazol-5-yl}-3-(7-{[(2R)-2-ethyl-7-hydroxy-2,3-dihydropyrido[2,3-f][1,4]oxazepin-4(5H)-yl]methyl}-1-benzothiophen-5-yl)propanoic acid] | > 5

From patent US20250296939A1, “BENZOTHIOPHENE COMPOUND” (Kyoto Pharmaceutical Industries, Ltd., priority 2022, published 2025)
